Assay results from US20250129045A1, “SMALL MOLECULE PIM AND MTOR KINASE INHIBITOR AND METHODS OF USE THEREOF” (Arizona Board of Regents on Behalf of the University of …, priority 2022, published 2025).
Entries after “also recorded” stand apart in the source; their conditions may differ.

Experiments:
Pim1 and EDC3 binding = Pim1 and EDC3 binding (Homo sapiens, UniProt P11309); assay: In vitro co-precipitation / co-immunoprecipitation of EDC3 with Pim1; settings: VBT-5445 at concentrations higher than 1 μM, listed as VBT 1-34
Method: (§1) FIGS. 7A-7I show inhibition of VBT5445 (VBT) on Pim1 and EDC3 binding and phosphorylation. FIG. 7A: In vitro co-precipitation (Co-PPT) assay was performed with recombinant EDC3 and biotinylated Pim1 using Streptavidin beads with increasing concentrations of the Pim inhibitor VBT5445 (VBT). FIG. 7B: Kinase assays were performed with recombinant EDC3 and Pim1 with increasing concentrations of VBT. FIG. 7C: Cell lysates from PC3-LN4 cells cultured with DMSO, 10 μM VBT, 3 μM AZD5363 (AKTi) and the combination for 6 hrs were subjected to western blotting (WB). […] WBs were performed using the indicated antibodies. FIG. 7E: PC3-LN4 cells were seeded into 48 well plate and incubated with either DMSO, VBT, AZD5363 or the combination, for 4.5 days. A real-time imaging system (IncuCyte™) was used to measure cell proliferation using a non-label cell monolayer confluence approach. FIG. 7F-7H: GFP image in PC3 LN4 GFP EDC3 expressing cells treated with PIMi: VBT (5 μM) and VBT (5 μM)+AZD5363 (3 μM) for 6 hrs.

PC3-LN4 and PANC1 cells = assay: RPPA of PC3-LN4 and PANC1 cells (FIG. 24); type: cell-based; settings: 5 μM, 24 h
Method: Tumor cells were treated with or without GRG-1-34 (5 μM) for 24 h and lysates were subjected to RPPA. The results were clustered in the form of heat map created using the Heatmapper web tool. The analysis was completed with the clustering method of Complete Linkage and the distance measurement method of Kendall's Tau.
To further examine how these compounds function to inhibit tumor growth, changes in both a wide variety of phosphoprotein and protein levels using reverse-phase protein arrays (RPPA) were evaluated. PANC1 and PC3-LN4 cells were treated with GRG1-34 at 5 μM for 24 h. […] The values in the RPPA obtained at these two time points were divided by the value at time zero to allow an evaluation of the changes caused by each drug treatment.

mTORC = assay: Phosphorylation of mTORC substrates in PANC1 cells (Western blot); type: cell-based; settings: overnight incubation
Method: Immunoblotting: Western blots were performed as described previously. Briefly, protein lysates (30 μg) were subjected to SDS-PAGE and transferred to nitrocellulose membranes. After blocking with 5% milk in TBST buffer for 30 min at room temperature, the membranes were incubated overnight at 4° C. with the Indicated primary antibody in 3% BSA in TBST. Specific proteins were detected with the corresponding HRP conjugated secondary antibody using enhanced chemiluminescence (GE Lifesciences, Piscataway, NJ).
Because of ease of growth, PANC1 pancreatic cancer cells were used to test the activity of derivatives of VBT-5445 (FIG. 14). […] Using a doxycycline inducible Pim kinase vector in these tumor cells, this inhibition of phosphorylation was proportional to the level of Pim in these cells (FIG. 9). […] Inhibition of mTORC1 is known to stimulate the feedback activation of mTORC2 leading to AKT phosphorylation. […] The effect of these compounds on mTORC1 and 2 was still evident in PC3-LN4 cells that contained a knockout (KO) using CRISPR/CAS9 of either TSC2 or DEPDC5 (FIG. 12, lanes 4-9). TSC2 KO activated the Rheb GTPase while DEPDC5 KO activated the RAG GTPase both of which stimulate mTORC1 activity. Thus, GRG compounds were capable of inhibiting mTORC1 activity even when this kinase was highly activated.

PC3-LN4 cells = assay: Cell growth assay (IncuCyte) in PC3-LN4 prostate cancer cells; type: cell-based, human; settings: combination with AZD5363 or BKM120
Method: as §1
Cell growth assay: Tumor cells were seeded into 48 well plates (1000 cells/well) and treated with varied agents. The Incucyte real-time imaging system (Incucyte) was used to measure cell proliferation using a non-label cell monolayer confluence approach. The images were captured every 12 h. Graphs were generated using an integrated confluence metric as an alternative for cell numbers. At the end of the study cell growth was visualized by crystal violet staining.

Pim1 = Pim1 (Homo sapiens, UniProt P11309); assay: Kinase assay with purified Pim1 and EDC3 (EDC3 S161 phosphorylation); type: biochemical; settings: in vitro, FIG. 8
Method: as §1
Computer screening followed by surface plasmon resonance (SPR) yielded a lead compound VBT-5445 that can interact with the Pim-1 protein kinase. Enhancer of mRNA Decapping 3 (EDC3) is a substrate of the Pim kinase that regulates the decapping of messenger RNA, and its activity is modulated by Pim mediated phosphorylation. […]

[1] = test system: T-cell acute lymphoblastic leukemia cell line DU528; assay: Cell viability (XTT) assay in T-ALL cells; type: cell-based; settings: 72 h, listed as VBT 1-34
Method: Cell viability (XTT) assay: T-ALL cells were seeded into 96 well plates at a density of 20,000 cells per well and treated with VBT-5445 for 72 h, using DMSO as control. Cell viability was measured using XTT cell proliferation assay (Trevigen Cat #4891-025-K) following the manufacturer's protocol. Briefly, XTT reagent was added to cell culture after the treatment and incubated for 4 h at 37° C. and 5% CO2. The absorbance of the colored formazan product was measured at 450 nm.

Prostate Cancer Growth = assay: SAR studies using inhibition of prostate cancer growth as a readout; type: cell-based; settings: SAR by substituent position

Chain of Pim1 and EDC3 binding (P11309 whole entry): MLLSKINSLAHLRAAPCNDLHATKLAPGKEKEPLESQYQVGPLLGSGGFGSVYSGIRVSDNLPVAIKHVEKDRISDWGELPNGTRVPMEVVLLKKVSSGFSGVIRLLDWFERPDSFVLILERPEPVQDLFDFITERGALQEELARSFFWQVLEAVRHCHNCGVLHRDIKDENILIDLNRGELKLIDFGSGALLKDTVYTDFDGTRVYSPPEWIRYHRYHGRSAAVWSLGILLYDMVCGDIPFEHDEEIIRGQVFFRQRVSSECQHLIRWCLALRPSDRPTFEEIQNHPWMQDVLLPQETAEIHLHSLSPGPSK
Chain of Pim1 (P11309 whole entry): as above

For O=c1c(CNCc2cc(Br)ccn2)cc2ccc(Cl)cc2n1CCOc1ccccc1 [GRG-1-34, 3-((((4-bromopyridin-2-yl)methyl)amino)methyl)-7-chloro-1-(2-phenoxyethyl) quinolin-2 (1H)-one], the “co-immunoprecipitation of EDC3 with Pim” value (Pim1 and EDC3 binding) was “block the co-immunoprecipitation of EDC3 with Pim; also recorded: blocks co-immunoprecipitation of EDC3 with Pim”, the “mTORC signaling pathway on RPPA (mTOR S2448, S6 S235/235, S6K T389, 4E-BP1 S65)” value (PC3-LN4 and PANC1 cells) was “inhibition” and the “phosphorylation of AMPK T172 on RPPA” value (PC3-LN4 and PANC1 cells) was “increased”. The “phosphorylation of acetyl COA carboxylase S79 on RPPA” value (PC3-LN4 and PANC1 cells) was “increased”, the “block of phosphorylation of mTORC substrates (AKT, 4E-BP1, S6)” value (mTORC; FIG. 19) was “block the phosphorylation of mTORC substrates” and the “block of phosphorylation of mTORC substrates (AKT, 4E-BP1, S6)” value (mTORC; FIG. 19, listed as VBT 1-34) was “inhibit phosphorylation of mTORC substrates”. The “prostate cancer (PC3-LN4) growth, in combination with AKT/PI3K inhibitor” value (PC3-LN4 cells) was “enhanced”, the “inhibition of the ability of Pim to phosphorylate EDC3” value (Pim1) was “inhibit the ability of Pim to phosphorylate EDC3” and the “growth of T-acute lymphoblastic leukemia cells” value [1] was “inhibits the growth; also recorded: shows activity”. For the same compound, the “Activity (inhibition of prostate cancer growth)” value (Prostate Cancer Growth) was 6 active compounds.
